Assay results reported in US20170266168A1, “METHODS FOR PREVENTING OR TREATING OSTEOARTHRITIS” (RUSH UNIVERSITY MEDICAL CENTER, priority 2014, published 2017).

Experiments:
[1] = tested on: whole knee joints of Has1KO mice with patellar groove cartilage injury; test: Whole joint gene expression (TAQMAN qPCR, RT2 Profiler NF-κB and Fibrosis arrays) after cartilage injury; type: in vivo
Description: (§1) Under approved IACUC protocols, a confined non-bleeding cartilage injury was created in the patellar groove of the right legs of 12-wk old male WT and Has1KO (C57Bl6) mice. Pirfenidone was provided in the chow (5 mg/g, Harlan) starting 3 days after surgery, and mice ingested about 600 mg pirfenidone/kg body weight daily. Joint tissue pathology was evaluated by photography of joint tissue surfaces after India Ink application (FIG. 1) and by histology of the intact joint with Safranin-O and Masson's Trichrome stained sections (FIG. 2.) For gene expression studies, skin and muscle was removed and whole knee joints were stored in RNALater. Inventoried TAQMAN® probes for Gapdh, Has2, Tnfaip6, Col1a1, Col3a1 and Vcan V2 were used to measure expression at 0, 7, 14, and 28 days post-injury, and Qiagen RT2 Profiler PCR Assay mouse arrays for NF-κB (PAMM-225ZA) and Fibrosis (PAMM-120ZA) pathways were used to assay whole joints at 21-28 days after injury, with and without pirfenidone treatment. Relative mRNA abundance was calculated as 1000×2−ΔCt, with ΔCt defined as Ct of the gene of interest minus Ct of Gapdh. Fold change was defined as abundance at a time point divided by abundance in the naïve condition for the same genotype.

[2] = tested on: Has1KO mice with patellar groove cartilage injury; test: Joint tissue pathology by histology (Safranin-O, Masson's Trichrome) after cartilage injury; type: in vivo
Description: as §1
In the same way, the effects on expression of pro-inflammatory and pro-fibrotic genes were accompanied by profound effects on tissue pathology. A histologic examination of sagittal sections across the entire joint was done on 3 mice from each group.

[3] = tested on: injured Has1KO joints; test: Micro-computed Tomography of bone structure after cartilage injury; type: in vivo, mice; settings: femur posterior to trochlear groove, day 28
Excerpt: The effect of pirfenidone administration on bone structure was examined using Micro-computed Tomography (micro-CT) to identify bone differences (FIG. 7). The regions of interest examined included the trabecular bone in the femur directly posterior to the trochlear groove, where the defect was created (FIG. 8) and the cortical bone of the femoral midshaft (FIG. 9.) The trabecular bone parameters, obtained using micro-CT, indicate a recovery in injured Has1KO joints of bone-to-total volume, connectivity density, trabecular number, trabecular thickness, and trabecular separation to naive levels, surpassing even injured WT in bone recovery, and are shown in FIG. 10.

[4] = 24 day drug treatment post injury
[5] = sagittal sections across entire joint, 3 mice per group

With `Cc1ccc(=O)n(-c2ccccc2)c1` [pirfenidone, 5-methyl-1-phenylpyridin-2-one] the “activation of anti-apoptotic, anti-fibrotic and matrix remodeling genes (Sod2, Ccl12, Il13ra2, Serpine1, Timp1)” value [1, 4] was “enhanced”, the “expression of genes in the Nf-κB and Fibrosis pathways (arrays of 84 genes each)” value [1, 4] was “marked effect” and the “expression of genes linked to the aberrant wound healing responses” value ([1]; pirfenidone in chow 5 mg/g (about 600 mg/kg daily) from 3 days after surgery, whole joint) was “normalized”. For the same molecule, the “Has2 expression (delayed and more prolonged than in WT)” value ([1]; pirfenidone in chow, whole joint) was “normalized”, the “Tnfaip6 expression (enhanced at 2 weeks in Has1KO)” value ([1]; pirfenidone in chow, whole joint, 2 weeks) was “normalized” and the “Vcan V2 expression (markedly inhibited in Has1KO)” value ([1]; pirfenidone in chow, whole joint, 7 days) was “inhibition was corrected”. For the same molecule, the “loss of cartilage and subchondral bone in the joint after cartilage injury” value ([2]; Has1KO, 4 weeks post-injury, Safranin-O stained) was “reduces”, the “Safranin-O staining in the cartilages (including growth plates)” value [2, 5] was “marked enhancement” and the “appearance of fibrotic tissues” value [2, 5] was “blocked”. For the same molecule, the “trabecular bone parameters (bone-to-total volume, connectivity density, trabecular number, thickness, separation)” value [3] was “recovery”.
